Results from patent US9580390B2, “Indazole compounds as kinase inhibitors and method of treating cancer with same” (University Health Network, priority 2011, dated 2017).
Where two headings read alike, the source gives them in different places.

Key:
[1] = system: colon cancer cells (HCT116); test: Cancer cell line growth inhibition (SRB assay); format: cell-based; conditions: read-out: Cancer Cell Line GI50 Range HCT116
[2] = system: TICs (Colon 12); test: Colon tumor-initiating cell growth inhibition (Alamar Blue); format: cell-based; conditions: Colon 12 TICs, 9 days, read-out: Tumor Initiating Cell GI50 Range Colon 12
Description: Materials and Methods: Non-tissue or tissue cultured treated T-75 flask and 96-well plates were purchased from VWR. Vitamin B-27 supplement, MEM NEAA (minimum essential medium non essential amino acids), sodium pyruvate, L-glutamine, N2 supplement, penicillin-streptomycin and fungizone/amphotericin B were obtained from Invitrogen. Lipid mixture, heparin and EGF were purchased from Sigma; bFGF from BD Biosciences. Tumor Initiating Cells (TICs) from colon were routinely maintained using non-tissue cultured treated T-75 flasks in DMEM:F12 medium containing 0.2×B-27 supplement, 4 ug/ml heparin, 1×MEM NEAA, 1× sodium pyruvate, 1 mM glutamine, 10 pg/ul bFGF, 20 pg/ul EGF, 1×N2 supplement, lipid mixture, penicillin-streptomycin and fungizone/amphotericin B. Ovarian TICs were routinely maintained using tissue cultured treated T-75 flasks in DMEM:F12 medium containing 1×B-27 supplement, 4 ug/ml heparin, 20 pg/ul bFGF, 20 pg/ul EGF and penicillin-streptomycin.
Assay Protocol: Compounds described herein were dissolved in DMSO and further diluted in cell culture medium for GI50 determination. Colon TICs were trypsinized and seeded into non-tissue cultured treated 96-well plates with 4,000 cells/well. After 24 h, compound was added into the cell culture at different concentrations, and the final concentration of DMSO was adjusted to 0.1%. Cells were then cultured at 37° C. for 9 days. Ovarian TICs were trypsinized and seeded into tissue cultured treated 96-well plates with 1,000 cells/well. After 24 h, compound was added into the cell culture at different concentrations, and the final concentration of DMSO was adjusted to 0.1%. Cells were then cultured at 37° C. for 6 days. Cell viability was assessed by Alamar Blue assay: 10 ul of Alamar Blue was added into each well. After 4 hours incubation at 37° C., fluorescence was recorded at excitation 544 and emission 590. GI50 (Growth inhibition) was calculated using GraphPad Prism 4.0 software.

[3] = target: T1, human TTK (Homo sapiens, UniProt P33981); test: TTK inhibition assay (indirect ELISA); format: biochemical
T1 construct: amino terminal GST fusion of full length human TTK; purchased Invitrogen
T1 sequence (P33981 1-857): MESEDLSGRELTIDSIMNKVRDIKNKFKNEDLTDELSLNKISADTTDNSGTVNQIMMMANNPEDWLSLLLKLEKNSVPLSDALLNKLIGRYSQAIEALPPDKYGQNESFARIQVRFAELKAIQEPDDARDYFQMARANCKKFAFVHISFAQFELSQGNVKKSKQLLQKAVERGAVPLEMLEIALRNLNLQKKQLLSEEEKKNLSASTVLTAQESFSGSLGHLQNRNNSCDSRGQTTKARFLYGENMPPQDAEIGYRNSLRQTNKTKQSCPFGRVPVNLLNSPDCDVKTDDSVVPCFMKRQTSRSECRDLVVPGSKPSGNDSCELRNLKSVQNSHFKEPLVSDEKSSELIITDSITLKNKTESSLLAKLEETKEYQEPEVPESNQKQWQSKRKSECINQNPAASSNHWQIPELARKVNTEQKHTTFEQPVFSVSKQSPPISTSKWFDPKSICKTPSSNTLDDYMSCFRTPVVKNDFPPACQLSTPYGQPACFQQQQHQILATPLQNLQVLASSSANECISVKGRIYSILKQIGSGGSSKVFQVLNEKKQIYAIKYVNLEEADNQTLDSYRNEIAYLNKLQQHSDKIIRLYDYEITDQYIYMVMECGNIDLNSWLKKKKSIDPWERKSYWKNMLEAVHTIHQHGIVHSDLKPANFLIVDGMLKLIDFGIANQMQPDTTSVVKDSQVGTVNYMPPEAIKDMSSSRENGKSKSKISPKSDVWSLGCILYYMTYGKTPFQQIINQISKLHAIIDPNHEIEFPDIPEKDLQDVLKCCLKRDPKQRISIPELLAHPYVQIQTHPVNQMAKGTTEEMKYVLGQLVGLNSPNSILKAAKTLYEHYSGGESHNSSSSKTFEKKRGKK

[4] = system: TICs (Ovarian 2393A); test: Ovarian tumor-initiating cell growth inhibition (Alamar Blue); format: cell-based; conditions: Ovarian 2393A TICs, 6 days, read-out: Tumor Initiating Cell GI50 Range Ovarain 2393A
[5] = system: ovarian cancer cells (PA-1); test: Cancer cell line growth inhibition (SRB assay); format: cell-based; conditions: PA-1, read-out: Cancer Cell Line GI50 Range PA-1

Structure (SMILES)	GI50 ([1]; Homo sapiens, HCT-116) [nM]	GI50 ([2]; 216 h) [nM]	IC50 [3] [nM]	GI50 ([4]; 144 h) [nM]	GI50 ([5]; Homo sapiens) [nM]	GI50 ([1]; HCT116) [nM]	GI50 [2] [nM]	IC50 ([3]; read-out: TTK IC50 Range) [nM]	GI50 [4] [nM]	GI50 [5] [nM]
CC(C)C[C@@H](NC(=O)c1ccc2[nH]nc(-c3ccc(N4C5CCC4CC(O)C5)cc3)c2c1)c1ccccn1 (stereo partly drawn) [Example A305, 3-(4-((1R,3R,5S)-3-hydroxy-8-azabicyclo[3.2.1]octan-8-yl)phenyl)-N-((R)-3-methyl-1-(pyridin-2-yl)butyl)-1H-indazole-5-carboxamide]	< 100	< 100	< 100	< 100	< 100	–	–	–	–	–
O=C(N[C@H](c1ccccn1)C1CC1)c1ccc2[nH]nc(-c3ccc(N4C5CCC4CC(O)C5)cc3)c2c1 (stereo partly drawn) [Example A307, N-((S)-cyclopropyl(pyridin-2-yl)methyl)-3-(4-((1R,3R,5S)-3-hydroxy-8-azabicyclo[3.2.1]octan-8-yl)phenyl)-1H-indazole-5-carboxamide]	–	–	–	–	–	< 100	100 to 500	< 100	100 to 500	< 100
O=C(N[C@H](c1ccccn1)C1CC1)c1ccc2[nH]nc(-c3ccc(OC4CC5CCC(C4)N5C4COC4)cc3)c2c1 (stereo partly drawn) [Example A320, N-((S)-cyclopropyl(pyridin-2-yl)methyl)-3-(4-(((1R,3R,5S)-8-(oxetan-3-yl)-8-azabicyclo[3.2.1]octan-3-yl)oxy)phenyl)-1H-indazole-5-carboxamide]	< 100	< 100	–	100 to 500	< 100	–	–	< 100	–	–
O=CN1C2CCC1CC(Oc1ccc(-c3n[nH]c4ccc(C(=O)N[C@H](c5ccccn5)C5CC5)cc34)cc1)C2 (stereo partly drawn) [Example A322, N-((S)-cyclopropyl(pyridin-2-yl)methyl)-3-(4-(((1R,3R,5S)-8-formyl-8-azabicyclo[3.2.1]octan-3-yl)oxy)phenyl)-1H-indazole-5-carboxamide]	< 100	< 100	–	< 100	< 100	–	–	< 100	–	–
O=CN1C2CCC1CC(Oc1ccc(-c3n[nH]c4ccc(C(=O)N[C@H](c5ccccc5)C5CC5)cc34)cc1)C2 (stereo partly drawn) [Example A328, N-((S)-cyclopropyl(phenyl)methyl)-3-(4-(((1R,3R,5S)-8-formyl-8-azabicyclo[3.2.1]octan-3-yl)oxy)phenyl)-1H-indazole-5-carboxamide]	< 100	< 100	–	100 to 500	< 100	–	–	< 100	–	–
O=CN1[C@@H]2CC[C@H]1C[C@@H](Oc1ccc(-c3n[nH]c4ccc(C(=O)NC(c5ccsc5)C5CCC5)cc34)cc1)C2 (stereo partly drawn) [Example A329, N-(cyclobutyl(thiophen-3-yl)methyl)-3-(4-(((1R,3R,5S)-8-formyl-8-azabicyclo[3.2.1]octan-3-yl)oxy)phenyl)-1H-indazole-5-carboxamide]	< 100	< 100	–	< 100	< 100	–	–	< 100	–	–
CC(C)[C@H](NC(=O)c1ccc2[nH]nc(-c3ccc(OC4CCN(C5COC5)CC4)cc3)c2c1)c1ccccc1Cl [Example A332, (S)-N-(1-(2-chlorophenyl)-2-methylpropyl)-3-(4-((1-(oxetan-3-yl)piperidin-4-yl)oxy)phenyl)-1H-indazole-5-carboxamide]	< 100	< 100	–	< 100	< 100	–	–	< 100	–	–
O=C(N[C@H](c1ccccc1Cl)C1CC1)c1ccc2[nH]nc(-c3ccc(OC4CC5CCC(C4)N5C4COC4)cc3)c2c1 (stereo partly drawn) [Example A349, N-((S)-(2-chlorophenyl)(cyclopropyl)methyl)-3-(4-(((1R,3R,5S)-8-(oxetan-3-yl)-8-azabicyclo[3.2.1]octan-3-yl)oxy)phenyl)-1H-indazole-5-carboxamide]	< 100	< 100	–	< 100	< 100	–	–	< 100	–	–
